Literature values, collected in patent US8133870B2, “Therapeutic furopyrimidines and thienopyrimidines” (BioCryst Pharmaceuticals, Inc., priority 2004, dated 2012).

Test system: HCV

SMILES: NC(=O)c1ncn([C@@H]2O[C@H](CO)[C@@H](O)[C@H]2O)n1 [Ribavirin, 1-β-D-ribofuranosyl-1-1,2,4-triazole-3-carboxamide]
- toxicity (ribavirin): significant toxicity
- patients in whom serum amino transferase levels are reduced to normal (ribavirin alone, patients): 40%
- serum levels of HCV-RNA (ribavirin alone, patients): does not lower serum levels of HCV-RNA
